Data from patent publication US20250332181A1, “ANTIBIOTIC METHODS AND COMPOSITIONS” (AI BIO DISCOVERY LLC, priority 2024, published 2025).
“Also recorded” adds a separate entry of the source.

Assays:
Format in all cases: cell-based
[1] = system: Pseudomonas aeruginosa; test: Disk diffusion test on Pseudomonas aeruginosa
Text: (§1) Applicants undertook two rounds of studies. […] When agar plating was required, both rounds of Applicants' studies were undertaken using similar disk diffusion methods on bacteria grown on agar substrates in Petri dishes. These methods conform to those prescribed by the Clinical & Laboratory Standards Institute (https://clsi.org). […]

[2] = system: Acinetobacter baumannii; test: Disk diffusion test on Acinetobacter baumannii
Text: as §1

[3] = system: Citrobacter freundii; test: Disk diffusion test on Citrobacter freundii
Text: as §1

[4] = system: Klebsiella pneumoniae; test: Disk diffusion test on Klebsiella pneumoniae; conditions: for antibacterial activity of the agent by itself: single agent disk, ceftazidime 30 μg, meropenem 10 μg, Compound C 15 μg
Text: (§2) Applicants undertook two rounds of studies. The results of the first round are illustrated in FIGS. 1A-9B and discussed in the related text. The results of the second round of studies are illustrated in FIGS. 10-23 and discussed in the related text. When agar plating was required, both rounds of Applicants' studies were undertaken using similar disk diffusion methods on bacteria grown on agar substrates in Petri dishes. These methods conform to those prescribed by the Clinical & Laboratory Standards Institute (https://clsi.org).
(§3) Disk Diffusion tests with beta-lactam antibiotics with and without the beta-lactamase inhibitor of FIG. 1A. Closely spaced disks disclose possible synergistic or inhibitory effects between the antibiotics and the compound of FIG. 1A (labeled in FIGS. 4A-9B as Compound C). The distances between disks show the effectiveness of the possible synergy. […] Each disk contains either the compound of FIG. 1A or an antibiotic (one of FIGS. 3A-3D), or the compound of […] and an antibiotic (one of FIGS. 3A-3D). When a disk with the compound of FIG. 1A is in proximity to a disk with an antibiotic both agents diffuse into the bacterial growth medium, allowing us to observe the area where both agents are present at the same time. These disk diffusion tests were evaluated with the following:
(§4) As noted above, Applicants' studies were undertaken using similar disk diffusion methods on bacteria grown on agar substrates in Petri dishes. These methods conform to those prescribed by the Clinical & Laboratory Standards Institute (https://clsi.org).

[5] = system: methicillin-resistant coagulase-negative Staphylococcus sps. (MRCoNS); test: Disk diffusion test on MRCoNS; conditions: for antibacterial activity of the agent by itself: single agent disk, penicillin G 10 μg, cefoxitin 30 μg, Compound C 15 μg
Text: as §2, §3, §4

[6] = system: MSSA (methicillin-sensitive Staphylococcus aureus); test: Disk diffusion test on Staphylococcus aureus (MSSA); conditions: for action of the antibiotic by itself on the Staphylococcus aureus strain: used either separately or in combination
Text: as §1

[7] = system: Escherichia coli; test: Disk diffusion test on Escherichia coli
Text: as §1

[8] = in combination with piperacillin
[9] = in combination with ceftazidime (second round)
[10] = in combination with meropenem (second round)
[11] = in combination with ceftazidime
[12] = in combination with ceftriaxone

Row | SMILES | effectiveness of the combination with antibiotic ([1]; in combination with aztreonam) | effectiveness of the combination with antibiotic ([1]; in combination with cefepime) | effectiveness of the combination with antibiotic [1, 8] | effectiveness of the combination with antibiotic ([2]; in combination with cefepime) | effectiveness of the combination with antibiotic ([2]; in combination with meropenem) | effectiveness of the combination with antibiotic [4, 9] | effectiveness of the combination with antibiotic ([1]; in combination with meropenem) | effectiveness of the combination with antibiotic [2, 11] | other results
1 | O=C(O)c1cc(B(O)O)ccc1F [5-Borono-2-fluorobenzoic acid] | enhanced effectiveness | enhanced effectiveness | enhanced effectiveness | enhanced effectiveness | enhanced effectiveness |  |  |  | 
2 | O=C(O)c1cccc(B(O)O)c1F [3-Carboxy-2-fluorophenylboronic acid] |  | partial effectiveness | partial effectiveness | enhanced effectiveness | enhanced effectiveness | enhanced effectiveness | partial effectiveness | enhanced effectiveness | effectiveness of the combination with antibiotic ([3]; in combination with meropenem): partial effectiveness; effectiveness of the combination with antibiotic ([4]; in combination with cefepime): enhanced effectiveness; effectiveness of the combination with antibiotic [4, 10]: enhanced effectiveness
3 | CO[C@@]1(NC(=O)Cc2cccs2)C(=O)N2C(C(=O)O)=C(COC(N)=O)CS[C@@H]21 [Cefoxitin, cefoxitin, reference compound] |  |  |  |  |  |  |  |  | antibacterial activity of the agent by itself [5]: active on its own
4 | O=C(O)c1cc(B(O)O)ccc1Cl [5-Borono-2-chlorobenzoic acid] |  |  |  | enhanced effectiveness | enhanced effectiveness | enhanced effectiveness |  | enhanced effectiveness | effectiveness of the combination with antibiotic ([4]; in combination with cefepime): enhanced effectiveness
5 | C[C@@H](O)[C@H]1C(=O)N2C(C(=O)O)=C(S[C@@H]3CN[C@H](C(=O)N(C)C)C3)[C@H](C)[C@H]12 [Meropenem, meropenem, reference compound] |  |  |  |  |  |  |  |  | antibacterial activity of the agent by itself [4]: by itself IS active
6 | CC(C)(O/N=C(\C(=O)N[C@@H]1C(=O)N2C(C(=O)[O-])=C(C[n+]3ccccc3)CS[C@H]12)c1csc(N)n1)C(=O)O [Ceftazidime, ceftazidime, reference compound] |  |  |  |  |  |  |  |  | antibacterial activity of the agent by itself [4]: very little antibacterial activity; also recorded: by itself is inactive
7 | O=C(O)c1ccc(Cl)c(B(O)O)c1 [5-Carboxy-2-chlorophenylboronic acid] |  |  | enhanced effectiveness | enhanced effectiveness |  | enhanced effectiveness | enhanced effectiveness | enhanced effectiveness | effectiveness of the combination with antibiotic ([3]; in combination with meropenem): partial enhanced effectiveness; effectiveness of the combination with antibiotic ([4]; in combination with cefepime): enhanced effectiveness
8 | CC1(C)OB(c2cccc(CC(=O)O)c2)OC1(C)C [Phenylacetic acid-3-boronic acid pinacol ester] | enhanced effectiveness | enhanced effectiveness | enhanced effectiveness | enhanced effectiveness |  |  | enhanced effectiveness |  | 
9 | OB(O)c1cc(F)cc(F)c1F [2,3,5-Trifluorophenylboronic acid] | enhanced effectiveness | enhanced effectiveness | enhanced effectiveness | enhanced effectiveness | enhanced effectiveness |  | enhanced effectiveness | enhanced effectiveness | effectiveness of the combination with antibiotic [1, 11]: enhanced effectiveness
10 | CC1(C)S[C@@H]2[C@H](NC(=O)[C@H](N)c3ccc(O)cc3)C(=O)N2[C@H]1C(=O)O [amoxicillin, reference compound] |  |  |  |  |  |  |  |  | action of the antibiotic by itself on the Staphylococcus aureus strain [6]: completely resistant
11 | O=C(O)c1ccc(F)c(B(O)O)c1 [5-Carboxy-2-fluorophenylboronic Acid] |  |  | proved effective | enhanced effectiveness | enhanced effectiveness | enhanced effectiveness | enhanced effectiveness | enhanced effectiveness | effectiveness of the combination with antibiotic ([4]; in combination with cefepime): enhanced effectiveness; effectiveness of the combination with antibiotic [4, 10]: enhanced effectiveness
12 | CC1(C)S[C@@H]2[C@H](NC(=O)Cc3ccccc3)C(=O)N2[C@H]1C(=O)O [Penicillin G, penicillin G, reference compound] |  |  |  |  |  |  |  |  | action of the antibiotic by itself on the Staphylococcus aureus strain [6]: completely resistant; antibacterial activity of the agent by itself [5]: no activity by itself; antibacterial activity of the agent by itself ([5]; listed as penicillin G): no antibacterial activity
13 | Nc1cc(B(O)O)cc(C(=O)O)c1 [3-Amino-5-carboxylphenylboronic acid] |  |  |  | enhanced effectiveness |  |  |  |  | 
14 | CC1(C)OB(c2ccc(C(=O)O)s2)OC1(C)C [5-Carboxythiophene-2-boronic acid pinacol ester] | enhanced effectiveness | partial effectiveness |  | enhanced effectiveness | enhanced effectiveness | enhanced effectiveness |  | enhanced effectiveness | effectiveness of the combination with antibiotic ([7]; in combination with amoxycillin): enhanced effectiveness; effectiveness of the combination with antibiotic [7, 11]: enhanced effectiveness; effectiveness of the combination with antibiotic [7, 12]: enhanced effectiveness; effectiveness of the combination with antibiotic ([7]; in combination with meropenem): enhanced effectiveness; effectiveness of the combination with antibiotic ([6]; in combination with ampicillin): enhanced effectiveness; effectiveness of the combination with antibiotic ([6]; in combination with penicillin G): enhanced effectiveness; effectiveness of the combination with antibiotic [3, 11]: enhanced effectiveness; effectiveness of the combination with antibiotic [3, 12]: enhanced effectiveness; effectiveness of the combination with antibiotic ([3]; in combination with meropenem): enhanced effectiveness; effectiveness of the combination with antibiotic ([5]; in combination with ampicillin): enhanced effectiveness; effectiveness of the combination with antibiotic ([5]; in combination with penicillin G (second round)): enhanced effectiveness; effectiveness of the combination with antibiotic [4, 12]: enhanced effectiveness; effectiveness of the combination with antibiotic [4, 10]: enhanced effectiveness; effectiveness of the combination with antibiotic ([1]; in combination with cefoperazone): enhanced effectiveness
15 | O=C(O)c1cc(B(O)O)cc([N+](=O)[O-])c1 [Benzoic acid, 3-borono-5-nitro] | enhanced effectiveness | enhanced effectiveness |  | enhanced effectiveness |  |  |  |  | 
